Results published in patent publication US6541612B2 (Wyeth, priority 1993, dated 2003).

Key:
[1] = system: RAP-42-OVAF2#1 MoAb; details: for fluorescence polarization on addition of RAP-42-OVAF2#1 MoAb: 5 ug/mL MoAb
From the text: The hybridoma cell line in P4G1 was cloned by limiting dilution and is designated as hybridoma cell line, RAP-42-OVAF2#1hc.

[2] = target: T1, FKBP12 (Homo sapiens, UniProt P62942); assay: Fluorescence polarization, tracer binding to FKBP12; details: for fluorescence polarization on addition of FKBP12: 0.ug FKBP12 to 1.00 mL 10 nM tracer; for fluorescence polarization before addition of FKBP12: 1.00 mL 10 nM tracer
T1 sequence (P62942 whole entry, species assumed): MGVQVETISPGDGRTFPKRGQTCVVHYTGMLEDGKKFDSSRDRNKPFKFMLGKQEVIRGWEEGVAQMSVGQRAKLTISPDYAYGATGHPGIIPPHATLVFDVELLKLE

[3] = system: Anti-rapamycin Antibody; assay: Capture ELISA of anti-rapamycin antibody levels in rabbit sera; assay type: binding; details: sera diluted 1:5, conjugate 0.5 ng/ml
Description: Microtiter plates (IMMUNOLON I) were coated overnight with 100 μl of goat anti-mouse antibody (10 μg/ml in 10 mM potassium phosphate buffer, pH 7.2) at 4° C. The plates were flicked and blocked with 100 μl of 1% bovine sera albumin in phosphate buffered saline overnight at 4° C. […] After flicking and washing the plates thrice with wash buffer, TMB substrate with H2O2 was added and the plates were incubated covered for 30 min. at room temperature in the dark. The optical density was read on a spectrophotometer at 450 nm.

[4] = system: rapamycin specific antibody; assay: BIAcore binding of antibody to matrix-immobilized compound; details: 803 resonance units (RU) of the compound immobilized on a solid matrix, EDC and NHS
Description: The following example illustrates that 803 resonance units (RU) of the compound of Example 11 can be immobilized on a solid matrix using the BIAcore's standard protocol based on EDC and NHS used in a BIAcore. […] The kinetics of association and dissociation were determined for each concentration of antibody tested (0.625, 1.25, 2.5, 5.0, 10.0 ug/ml). […] This matrix can also be used for the isolation of novel binding proteins, as practiced by one skilled in the art. […] In one approach, tissue or cell lysates containing the appropriate protease inhibitors are incubated with FKBP which has been incubated with a deprotected-rapamycin 42-ester with N-[9fluoren-9-ylmethoxy)carbonyl]glycine conjugated matrix for a sufficient time to allow binding. Various buffers are used to rinse the proteins which are nonspecifically bound.

[5] = system: mice; details: 50 μg intrasplenically in Complete Freund's Adjuvant, boost 50 μg into footpads
Description: Microtiter plates (IMMUNOLON I) were coated overnight with 100 μl of goat anti-mouse antibody (10 μg/ml in 10 mM potassium phosphate buffer, pH 7.2) at 4° C. The plates were flicked and blocked with 100 μl of 1% bovine sera albumin in phosphate buffered saline overnight at 4° C. After flicking and washing the plates thrice with 10 mM phosphate buffer, pH 7.05, 30 mM NaCl, 0.02% TRITON X-100 (polyethylene glycol tert-octylphenyl ether) and 0.004% thimerosal wash buffer, 100 μl of each mouse sera diluted with phosphate buffer solution was added to a well and incubated at room temperature for overnight.

[6] = target: T1, FKBP12; assay: Fluorescence polarization competition, rapamycin-fluorescein and FKBP12; assay type: binding
[7] = system: RAP-42-OVAF2#1
[8] = tracer 10 nM in 100 mM sodium phosphate pH 7.5

Secorapamycin 42-ester with Succinic Acid Conjugate with 5-Glycinylfluoresceinamine [Example 24]
binding by RAP-42-OVAF2#1 MoAb (in words) [1]: binds specifically | fluorescence polarization before addition of RAP-42-OVAF2#1 MoAb [1]: 44 mP | fluorescence polarization on addition of RAP-42-OVAF2#1 MoAb [1]: 136 mP | fluorescence polarization on addition of FKBP12 [2]: 58 mP | fluorescence polarization before addition of FKBP12 [2]: 49 mP

Rapamycin 31.42-Diester with Glutaric Acid Conjugate with Horseradish Peroxidase [Example 10]
Prebleed (A450) ([3]; Rabbit No. 81): 0.119 | ΔA450 (3rd Bleed-Prebleed) ([3]; Rabbit No. 81): 0.713 | Prebleed (A450) ([3]; Rabbit No. 89): 0.136 | ΔA450 (3rd Bleed-Prebleed) ([3]; Rabbit No. 89): 0.037

COC1CC2CCC(C)C(O)(O2)C(=O)C(=O)N2CCCCC2C(=O)OC(C(C)CC2CCC(OC(=O)CNC(=O)OCC3c4ccccc4-c4ccccc43)C(OC)C2)CC(=O)C(C)C=C(C)C(O)C(OC)C(=O)C(C)CC(C)C=CC=CC=C1C (stereo not shown) [Example 11]
rapamycin specific antibody bound by the matrix [4]: 1401 RU

Rapamycin 42-Ester with 3-[3-(4-iminobutylthio)succinimidyl]phenacyl-glycine Conjugate with Horseradish Peroxidase [Example 12]
ΔA450 (3rd Bleed-Prebleed) ([3]; Rabbit No. 81): 0.217 | ΔA450 (3rd Bleed-Prebleed) ([3]; Rabbit No. 89): 0.026

Rapamycin 31.42-Diester with Glutaric Acid Conjugate with Keyhole Limpet Hemocyanin [Example 8]
mice with antibodies reactive for compound of Example 10 [5]: five of the five

CO[C@H]1C[C@@H]2CC[C@@H](C)[C@@](O)(O2)C(=O)C(=O)N2CCCC[C@H]2C(=O)O[C@H]([C@H](C)C[C@@H]2CC[C@@H](OC(=O)CCC(=O)NCC(=O)Nc3ccc4c(c3)C(=O)OC43c4ccc(O)cc4Oc4cc(O)ccc43)[C@H](OC)C2)CC(=O)[C@H](C)/C=C(\C)[C@@H](O)[C@@H](OC)C(=O)[C@H](C)C[C@H](C)/C=C/C=C/C=C/1C [Example 23a, Rapamycin-42-ester with Succinic Acid Conjugate with 5-Glycinlfluoresceinamine]
fluorescence polarization on addition of RAP-42-OVAF2#1 MoAb [1]: 58 mP | polarization after addition of excess of RAP-42-OVAF2#1 MoAb [1, 8]: 84 mP | fluorescence polarization on addition of FKBP12 [2]: 148 mP | fluorescence polarization before addition of FKBP12 [2]: 57 mP | polarization after addition of an excess of FKBP12 [2, 8]: 195 mP | polarization of tracer alone ([2]; tracer 10 nM in 100 mM sodium phosphate pH 7.5, no binder): 77 mP

CO[C@@H](C[C@@H]1CC[C@@H](C)[C@](O)(C(=O)C(=O)N2CCCC[C@H]2C(=O)[O-])O1)/C(C)=C/C=C/C=C/[C@@H](C)C[C@@H](C)C(=O)[C@H](OC)[C@H](O)/C(C)=C/[C@@H](C)C(=O)/C=C/[C@H](C)C[C@@H]1CC[C@@H](O)[C@H](OC)C1.[Na+] [secorapamycin]
fluorescence polarization in the presence of analyte ([6]; 100 nM analyte, 128 mP in the absence of analyte, 500 uL 0.02 ug/mL FKBP12 + 500 μL 20 nM rapamycin-fluorescein): 122 mP | effect on binding of rapamycin-fluorescein to FKBP12 (in words) ([6]; analyte 0 to 100 nM): no effect | fluorescence polarization in the presence of analyte ([7]; 100 nM analyte, 124 mP in the absence of analyte, 500 μL 10 μg/mL MoAb + 500 μL 20 nM secorapamycin-fluorescein): 74 mP | effect on binding of secorapamycin fluorescein derivative to RAP-42-OVAF2#1 (in words) ([7]; analyte 0 to 100 nM): inhibits binding

B1: Rapamycin 42 Ester with (N-(3-carboxyphenyl)-3-thiosuccinimidyl)-glycine Conjugate with Horseradish Peroxidase (conjugate, UniProt P00433 31-338, looked up)
Peroxidase C1A: QLTPTFYDNSCPNVSNIVRDTIVNELRSDPRIAASILRLHFHDCFVNGCDASILLDNTTSFRTEKDAFGNANSARGFPVIDRMKAAVESACPRTVSCADLLTIAAQQSVTLAGGPSWRVPLGRRDSLQAFLDLANANLPAPFFTLPQLKDSFRNVGLNRSSDLVALSGGHTFGKNQCRFIMDRLYNFSNTGLPDPTLNTTYLQTLRGLCPLNGNLSALVDFDLRTPTIFDNKYYVNLEEQKGLIQSDQELFSSPNATDTIPLVRSFANSTQTFFNAFVEAMDRMGNITPLTGTQGQIRLNCRVVNSNS
modifications: rapamycin 42-ester hapten conjugate
ΔA450 (3rd Bleed-Prebleed) ([3]; Rabbit No. 81): 0.114 | ΔA450 (3rd Bleed-Prebleed) ([3]; Rabbit No. 89): 0.020
